Columns and labels:
Format in all cases: in vivo
healthy subjects [1] = assay: Oral doses 3-72 mg in healthy subjects, reported drowsiness (Example 4D); conditions: 72mg dose (n=4); only this group among 3, 9, 18, 36 and 72mg reported drowsiness
Protocol: Only the group receiving the 72mg dose reported drowsiness (n=3).

[2] = tested on: newborn Sprague Dawley rats; assay: Depression of genioglossal EMG induced by L-Tryptophan and Pargyline
Protocol: (§1) Experiments were carried out on newborn Sprague Dawley rats from Iffa Credo breeding centre. The animals were anaesthetised by intraperitoneal injection of low doses of sodium pentobarbitone (7-10mg/kg), kept lying (dorsal cubitus) on a warming blanket and were spontaneously ventilating.
(§2) The EMG activity of the genioglossal muscles and the diaphragm were recorded with fine insulated wires (bipolar recordings) inserted within the muscles, filtered (100-3,000 Hz), amplified (x 5-10,000) and integrated (time constant 50 ms). The rib cage movements were recorded via a captor gently touching the lower ribs and/or the abdominal wall. The air flow changes resulting from the respiratory chest movements were recorded via a facial mask and a highly sensitive pressure recorder.
Ten to fifteen minutes after induction of anaesthesia, the animals received first an intraperitoneal injection of the COMPOUND, and a control recording was taken to define the mean amplitude of the integrated EMGs. Then, the animal received an intraperitoneal injection of L-Tryptophan plus Pargyline ("L-Trp+Parg") 10mg/kg and 50mg/kg, respectively, and the changes in EMG amplitudes were checked every 10 minutes and were expressed as % of control values.

healthy subjects [3] = assay: Oral doses in healthy subjects, reported drowsiness (Example 4C); conditions: for Drowsiness, % of subjects / Drowsiness, n subjects: group n=4
Protocol: The following data were reported. […] Only the group receiving the 72mg dose reported drowsiness ([…]).

[4] = tested on: newborn Sprague Dawley rats; assay: Occurrence of obstructive apneas induced by L-Tryptophan and Pargyline injection
Protocol: Intraperitoneal application of L-Tryptophan (10mg/kg) and Pargyline (50mg/kg) to anaesthesized newborn rats depressed the amplitude of the inspiratory discharges of the genioglossal muscle and induced obstructive apneas (OA).
as §1, §2

[5] = tested on: patients diagnosed with schizophrenia; assay: Oral twice-daily dosing in patients with schizophrenia, reported insomnia and somnolence (Example 4B); conditions: orally
Protocol: Forty percent of the subjects receiving the 20mg dose (2 out of 5) and sixty percent of the subjects receiving the 10mg dose (3 out of 5) experienced mild to moderate sedation. […] The following data were reported.

healthy subjects [6] = assay: Single oral dose in healthy subjects, reported sedation (Example 4A); conditions: orally
Protocol: Forty percent of the subjects receiving the 20mg dose (2 out of 5) and sixty percent of the subjects receiving the 10mg dose (3 out of 5) experienced mild to moderate sedation. […]

COc1cccc([C@H](O)C2CCN(CCc3ccc(F)cc3)CC2)c1OC [COMPOUND, R-(+)-α-(2,3-Dimethoxyphenyl)-1-[2-(4-fluorophenyl)ethyl]-4-piperidinemethanol]
reported drowsiness, n subjects (healthy subjects [1]): 3
prevention of the depression of genioglossal (GG) discharge induced by L-Trp+Parg ([2]; pre-treatment 0.1 mg/kg intraperitoneal, ten animals): did not prevent
prevention of the depression of genioglossal (GG) discharge induced by L-Trp+Parg ([2]; pre-treatment 1mg/kg intraperitoneal, ten newborn rats): efficient in preventing the GG depression
prevention of the depression of genioglossal (GG) discharge induced by L-Trp+Parg ([2]; pre-treatment 3mg/kg intraperitoneal, ten animals): confirmed the efficiency
Drowsiness, % of subjects (healthy subjects [3]; 9 mg orally): 50%
Drowsiness, n subjects (healthy subjects [3]; 9 mg orally): 2
Drowsiness, % of subjects (healthy subjects [3]; 18 mg orally): 100%
Drowsiness, n subjects (healthy subjects [3]; 18 mg orally): 4
Drowsiness, % of subjects (healthy subjects [3]; 36 mg orally): 100%
Drowsiness, n subjects (healthy subjects [3]; 36 mg orally): 4
drowsiness rating (healthy subjects [3]; 72 mg and above): moderate to severe
Drowsiness, % of subjects (healthy subjects [3]; 72 mg orally): 75%
Drowsiness, n subjects (healthy subjects [3]; 72 mg orally): 3
Drowsiness, % of subjects (healthy subjects [3]; 108 mg orally): 100%
Drowsiness, n subjects (healthy subjects [3]; 108 mg orally): 4
Drowsiness, % of subjects (healthy subjects [3]; 138 mg orally): 100%
Drowsiness, n subjects (healthy subjects [3]; 138 mg orally): 4
drowsiness rating (healthy subjects [3]; doses below 72 mg): mild or moderate
animals that died of respiratory distress ([4]; pre-treatment 0.1 mg/kg): 4 of the 10
newborn rats in which L-Trp+Parg injection induced OAs ([4]; pre-treatment 0.1 mg/kg): 9 of 10
newborn rats that did not present short lasting OAs at all ([4]; pre-treatment 1mg/kg): Five out of ten
newborn rats which displayed OAs ([4]; pre-treatment 1mg/kg): 5 of 10
newborn rats with long lasting OAs ([4]; pre-treatment 1mg/kg): one
survival to L-Trp+Parg injection ([4]; pre-treatment 1mg/kg): all animals survived
animals with infrequent OAs (less than 5 short lasting OAs in 60 minutes) ([4]; pre-treatment 1mg/kg, among the 5 of 10 which displayed OAs): 2
peak frequency of occurrence of short lasting OAs ([4]; pre-treatment 1mg/kg, between 20-40 min after the injection, mean curve): 4 OAs per 10 minute period
animals that displayed long lasting OAs ([4]; pre-treatment 3mg/kg): None of the 10
rats with a total of less than 3 short lasting Oas ([4]; pre-treatment 3mg/kg): 3 of 10
rats with no short lasting Oas ([4]; pre-treatment 3mg/kg): 5 of 10
survival ([4]; pre-treatment 3mg/kg): all survived
treated rats with frequent short lasting Oas ([4]; pre-treatment 3mg/kg): 2 of 10
Insomnia, % of subjects ([5]; 10 mg (5mg twice daily)): N=0; 0%
Insomnia, N (number of subjects that reported the effect) ([5]; 10 mg (5mg twice daily)): N=0; 0%
Somnolence, % of subjects ([5]; 10 mg (5mg twice daily)): 20%
Somnolence, N (number of subjects that reported the effect) ([5]; 10 mg (5mg twice daily)): 3
Insomnia, % of subjects ([5]; 20 mg (10mg twice daily)): 21.4%
Insomnia, N (number of subjects that reported the effect) ([5]; 20 mg (10mg twice daily)): 3
Somnolence, % of subjects ([5]; 20 mg (10mg twice daily)): 15.4%
Somnolence, N (number of subjects that reported the effect) ([5]; 20 mg (10mg twice daily)): N=1;
Insomnia, % of subjects ([5]; 40 mg (20mg twice daily)): 23.1%
Insomnia, N (number of subjects that reported the effect) ([5]; 40 mg (20mg twice daily)): 3
Somnolence, % of subjects ([5]; 40 mg (20mg twice daily)): 15.4%
Somnolence, N (number of subjects that reported the effect) ([5]; 40 mg (20mg twice daily)): N=2;
subjects experienced mild to moderate sedation (healthy subjects [6]; single 10mg dose): 3 out of 5
subjects experienced mild to moderate sedation (healthy subjects [6]; single 20mg dose): 2 out of 5

Cn1c(=O)c2[nH]cnc2n(C)c1=O [theophylline, reference compound]
prevention of depression of the amplitude of GG inspiratory discharges by L-Trp+Prg ([2]; 10mg/kg, five newborn rats): not prevented
prevention of depression of the amplitude of GG inspiratory discharges by L-Trp+Prg ([2]; 30mg/kg, 5 animals): not prevented
prevention of induction of OAs after L-Trp+Prg injection ([4]; 10 mg/kg): not prevented
prevention of induction of OAs after L-Trp+Prg injection ([4]; 30 mg/kg): not prevented

Source: patent EP1362589A1, “The use of R(+)-alpha-(2,3-dimethoxyphenyl)-1-(2-(4-fluorophenyl)ethyl)-4- piperidinemethanol for the treatment of sleep disorders” (Aventis Pharmaceuticals Inc., priority 1998, dated 2000)
